Experimental data reported in the NIST ThermoML archive (doi:10.1021/je049610v).

Assays:
[1] = refractive index (Na D-line) (dimensionless); xn = mol fraction of the nth substance listed; settings: 101 kPa, Liquid
[2] = xn = mol fraction of the nth substance listed; settings: 101 kPa, Liquid

ClC(Cl)C(Cl)Cl [1,1,2,2-tetrachloroethane] + COc1ccccc1
Settings | mass density, 298.15 K [kg/m3] | mass density, 303.15 K [kg/m3] | mass density, 308.15 K [kg/m3] | refractive index, 298.15 K | refractive index, 303.15 K | refractive index, 308.15 K | speed of sound, 298.15 K [m/s] | viscosity, 298.15 K [mPa·s] | viscosity, 303.15 K [mPa·s] | viscosity, 308.15 K [mPa·s]
[1], x2 = 0 | – | – | – | 1.4922 | 1.4894 | 1.4865 | – | – | – | –
[1], x2 = 0.1003 | – | – | – | 1.4943 | 1.4915 | 1.4887 | – | – | – | –
[1], x2 = 0.2021 | – | – | – | 1.4966 | 1.4937 | 1.4909 | – | – | – | –
[1], x2 = 0.303 | – | – | – | 1.4989 | 1.496 | 1.4931 | – | – | – | –
[1], x2 = 0.3939 | – | – | – | 1.5009 | 1.498 | 1.4952 | – | – | – | –
[1], x2 = 0.4986 | – | – | – | 1.5032 | 1.5005 | 1.4977 | – | – | – | –
[1], x2 = 0.5975 | – | – | – | 1.5055 | 1.5028 | 1.5 | – | – | – | –
[1], x2 = 0.6972 | – | – | – | 1.508 | 1.5052 | 1.5023 | – | – | – | –
[1], x2 = 0.7983 | – | – | – | 1.5105 | 1.5076 | 1.505 | – | – | – | –
[1], x2 = 0.9012 | – | – | – | 1.5129 | 1.51 | 1.5072 | – | – | – | –
[2], x2 = 0 | 1587.8 | 1580.6 | 1573.3 | – | – | – | 1153 | 1.591 | 1.471 | 1.361
[2], x2 = 0.1003 | 1526.3 | 1519.4 | 1512.6 | – | – | – | 1172 | 1.555 | 1.439 | 1.323
[2], x2 = 0.2021 | 1464.3 | 1457.7 | 1451.2 | – | – | – | 1193 | 1.518 | 1.404 | 1.29
[2], x2 = 0.303 | 1403.1 | 1396.9 | 1390.6 | – | – | – | 1214 | 1.47 | 1.362 | 1.253
[2], x2 = 0.3939 | 1348.3 | 1342.2 | 1336.2 | – | – | – | 1235 | 1.419 | 1.315 | 1.21
[2], x2 = 0.4986 | 1285.5 | 1279.9 | 1274 | – | – | – | 1262 | 1.355 | 1.255 | 1.155
[2], x2 = 0.5975 | 1226.5 | 1221.1 | 1215.6 | – | – | – | 1289 | 1.292 | 1.196 | 1.1
[2], x2 = 0.6972 | 1167.2 | 1162.1 | 1156.9 | – | – | – | 1317 | 1.224 | 1.131 | 1.038
[2], x2 = 0.7983 | 1107.6 | 1102.7 | 1097.7 | – | – | – | 1347 | 1.149 | 1.064 | 0.979
[2], x2 = 0.9012 | 1047 | 1042.8 | 1037.4 | – | – | – | 1379 | 1.074 | 0.994 | 0.914

ClC(Cl)=C(Cl)Cl [tetrachloroethene] + COc1ccccc1
Settings | mass density, 298.15 K [kg/m3] | mass density, 303.15 K [kg/m3] | mass density, 308.15 K [kg/m3] | refractive index, 298.15 K | refractive index, 303.15 K | refractive index, 308.15 K | speed of sound, 298.15 K [m/s] | viscosity, 298.15 K [mPa·s] | viscosity, 303.15 K [mPa·s] | viscosity, 308.15 K [mPa·s]
[1], x2 = 0 | – | – | – | 1.5036 | 1.501 | 1.498 | – | – | – | –
[1], x2 = 0.0979 | – | – | – | 1.5044 | 1.5015 | 1.4986 | – | – | – | –
[1], x2 = 0.1962 | – | – | – | 1.5053 | 1.5023 | 1.4993 | – | – | – | –
[1], x2 = 0.3035 | – | – | – | 1.5065 | 1.5034 | 1.5004 | – | – | – | –
[1], x2 = 0.4024 | – | – | – | 1.5075 | 1.5044 | 1.5014 | – | – | – | –
[1], x2 = 0.5044 | – | – | – | 1.5086 | 1.5056 | 1.5026 | – | – | – | –
[1], x2 = 0.6045 | – | – | – | 1.5099 | 1.5069 | 1.504 | – | – | – | –
[1], x2 = 0.7033 | – | – | – | 1.5111 | 1.5083 | 1.5054 | – | – | – | –
[1], x2 = 0.8036 | – | – | – | 1.5124 | 1.5096 | 1.5068 | – | – | – | –
[1], x2 = 0.8974 | – | – | – | 1.5135 | 1.5101 | 1.508 | – | – | – | –
[2], x2 = 0 | 1614.7 | 1606.9 | 1599 | – | – | – | 1038 | 0.861 | 0.817 | 0.782
[2], x2 = 0.0979 | 1548.6 | 1540.9 | 1533.6 | – | – | – | 1065 | 0.859 | 0.818 | 0.776
[2], x2 = 0.1962 | 1483.4 | 1476.1 | 1469 | – | – | – | 1094 | 0.854 | 0.813 | 0.77
[2], x2 = 0.3035 | 1413.9 | 1407 | 1400.4 | – | – | – | 1127 | 0.854 | 0.811 | 0.767
[2], x2 = 0.4024 | 1350.9 | 1343.5 | 1337.9 | – | – | – | 1159 | 0.861 | 0.815 | 0.77
[2], x2 = 0.5044 | 1286.9 | 1280.5 | 1274.6 | – | – | – | 1195 | 0.874 | 0.825 | 0.776
[2], x2 = 0.6045 | 1225.3 | 1219.3 | 1213.5 | – | – | – | 1232 | 0.892 | 0.839 | 0.787
[2], x2 = 0.7033 | 1165.1 | 1159.6 | 1154.1 | – | – | – | 1271 | 0.909 | 0.855 | 0.799
[2], x2 = 0.8036 | 1105 | 1099.6 | 1094.5 | – | – | – | 1314 | 0.935 | 0.877 | 0.817
[2], x2 = 0.8974 | 1049.2 | 1044.8 | 1039.2 | – | – | – | 1359 | 0.961 | 0.898 | 0.835
